Data reported in PubChem BioAssay (NCI).
Several values for one entry are separate records, joined by “and”; a condition that tells them apart may be missing. Equal values may be shown once.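 Values below derive from 48-hour exposures of cells grown in 96-well plates, with endpoints linearly interpolated between the two concentrations bracketing the appropriate inhibition level. At the GI50, growth is halved. TGI is the concentration that stops growth completely.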

Legend:
Assay in all cases: NCI anticancer screen, dose series, 48 h
SW-620 colon = test system: SW-620 colon
ACHN renal = test system: ACHN renal
RXF 393 renal = test system: RXF 393 renal
OVCAR-8 ovarian = test system: OVCAR-8 ovarian
A549 NSCLC = test system: A549 NSCLC
BT-549 breast = test system: BT-549 breast
786-0 renal = test system: 786-0 renal
CAKI-1 renal = test system: CAKI-1 renal
HOP-92 NSCLC = test system: HOP-92 NSCLC
HCT-116 colon = test system: HCT-116 colon
MDA-N = test system: MDA-N
IGROV1 ovarian = test system: IGROV1 ovarian
UO-31 renal = test system: UO-31 renal
SF-539 CNS = test system: SF-539 CNS
MOLT-4 leukemia = test system: MOLT-4 leukemia
EKVX NSCLC = test system: EKVX NSCLC
HL-60(TB) leukemia = test system: HL-60(TB) leukemia
UACC-257 melanoma = test system: UACC-257 melanoma
SNB-19 CNS = test system: SNB-19 CNS
SN12C renal = test system: SN12C renal
SF-268 CNS = test system: SF-268 CNS
COLO 205 colon = test system: COLO 205 colon
HOP-62 NSCLC = test system: HOP-62 NSCLC
OVCAR-4 ovarian = test system: OVCAR-4 ovarian
NCI/ADR-RES ovarian = test system: NCI/ADR-RES ovarian
A498 renal = test system: A498 renal
NCI-H460 lung = test system: NCI-H460 lung
UACC-62 melanoma = test system: UACC-62 melanoma
HCT-15 colon = test system: HCT-15 colon
RPMI-8226 leukemia = test system: RPMI-8226 leukemia
SR leukemia = test system: SR leukemia
U251 CNS = test system: U251 CNS
NCI-H23 lung = test system: NCI-H23 lung
PC-3 prostate = test system: PC-3 prostate
MDA-MB-231 breast = test system: MDA-MB-231 breast
MALME-3M melanoma = test system: MALME-3M melanoma
OVCAR-3 ovarian = test system: OVCAR-3 ovarian
HT29 colon = test system: HT29 colon
M14 melanoma = test system: M14 melanoma
CCRF-CEM leukemia = test system: CCRF-CEM leukemia
NCI-H522 lung = test system: NCI-H522 lung
SK-OV-3 ovarian = test system: SK-OV-3 ovarian
SK-MEL-2 melanoma = test system: SK-MEL-2 melanoma
HS 578T breast = test system: HS 578T breast
KM12 colon = test system: KM12 colon
MCF7 breast = test system: MCF7 breast
LOX IMVI melanoma = test system: LOX IMVI melanoma
NCI-H226 lung = test system: NCI-H226 lung
DU-145 prostate = test system: DU-145 prostate
SK-MEL-28 melanoma = test system: SK-MEL-28 melanoma
TK-10 renal = test system: TK-10 renal
SNB-75 CNS = test system: SNB-75 CNS
SK-MEL-5 melanoma = test system: SK-MEL-5 melanoma
SF-295 CNS = test system: SF-295 CNS
OVCAR-5 ovarian = test system: OVCAR-5 ovarian
MDA-MB-435 = test system: MDA-MB-435
K-562 leukemia = test system: K-562 leukemia

NC(CSC(=O)c1ccccc1)C(=O)O (stereo not given)
TGI (SW-620 colon): > 100000 nM | TGI (ACHN renal): > 100000 nM | TGI (RXF 393 renal): > 100000 nM | TGI (OVCAR-8 ovarian): > 100000 nM | TGI (A549 NSCLC): > 100000 nM | TGI (BT-549 breast): > 100000 nM | TGI (786-0 renal): > 100000 nM | TGI (CAKI-1 renal): > 100000 nM | TGI (HOP-92 NSCLC): > 100000 nM | TGI (HCT-116 colon): > 100000 nM | TGI (MDA-N): > 100000 nM | TGI (IGROV1 ovarian): > 100000 nM | TGI (UO-31 renal): > 100000 nM | TGI (SF-539 CNS): > 100000 nM | TGI (MOLT-4 leukemia): > 100000 nM | TGI (EKVX NSCLC): > 100000 nM | TGI (HL-60(TB) leukemia): > 100000 nM | TGI (UACC-257 melanoma): > 100000 nM | TGI (SNB-19 CNS): > 100000 nM | TGI (SN12C renal): > 100000 nM | TGI (SF-268 CNS): > 100000 nM | TGI (COLO 205 colon): > 100000 nM | TGI (HOP-62 NSCLC): > 100000 nM | TGI (OVCAR-4 ovarian): > 100000 nM | TGI (NCI/ADR-RES ovarian): > 100000 nM | TGI (A498 renal): > 100000 nM | TGI (NCI-H460 lung): > 100000 nM | TGI (UACC-62 melanoma): > 100000 nM | TGI (HCT-15 colon): > 100000 nM | TGI (RPMI-8226 leukemia): > 100000 nM | TGI (SR leukemia): > 100000 nM | TGI (U251 CNS): > 100000 nM | TGI (NCI-H23 lung): > 100000 nM | TGI (PC-3 prostate): > 100000 nM | TGI (MDA-MB-231 breast): > 100000 nM | TGI (MALME-3M melanoma): > 100000 nM | TGI (OVCAR-3 ovarian): > 100000 nM | TGI (HT29 colon): > 100000 nM | TGI (M14 melanoma): > 100000 nM | TGI (CCRF-CEM leukemia): > 100000 nM | TGI (NCI-H522 lung): > 100000 nM | TGI (SK-OV-3 ovarian): > 100000 nM | TGI (SK-MEL-2 melanoma): > 100000 nM | TGI (HS 578T breast): > 100000 nM | TGI (KM12 colon): > 100000 nM | TGI (MCF7 breast): > 100000 nM | TGI (LOX IMVI melanoma): > 100000 nM | TGI (NCI-H226 lung): > 100000 nM | TGI (DU-145 prostate): > 100000 nM | TGI (SK-MEL-28 melanoma): > 100000 nM | TGI (TK-10 renal): > 100000 nM | TGI (SNB-75 CNS): > 100000 nM | TGI (SK-MEL-5 melanoma): > 100000 nM | TGI (SF-295 CNS): > 100000 nM | TGI (OVCAR-5 ovarian): > 100000 nM | TGI (MDA-MB-435): > 100000 nM

CCc1c2c(nc3ccc(O)cc13)-c1cc3c(c(=O)n1C2)COC(=O)[C@]3(O)CC
TGI (SW-620 colon): > 100000 nM | TGI (ACHN renal): 32.2 nM and 123 nM | GI50 (A549 NSCLC): < 1 nM | TGI (A549 NSCLC): 8340 nM | GI50 (BT-549 breast): 10.3 nM | TGI (BT-549 breast): 293 nM | TGI (K-562 leukemia): > 100000 nM | TGI (CAKI-1 renal): 28.6 nM and 98.5 nM | GI50 (HOP-92 NSCLC): < 1 nM | TGI (HCT-116 colon): > 36100 nM | GI50 (MDA-N): 1920 nM | TGI (MDA-N): > 100000 nM | TGI (UO-31 renal): 15.2 nM and 115 nM | GI50 (EKVX NSCLC): 545 nM | TGI (EKVX NSCLC): > 100000 nM | GI50 (UACC-257 melanoma): 83.8 nM | TGI (SNB-19 CNS): > 12700 nM | TGI (SN12C renal): > 100000 nM | TGI (SF-268 CNS): 3680 nM | GI50 (COLO 205 colon): 71.1 nM | TGI (COLO 205 colon): 12200 nM | GI50 (OVCAR-4 ovarian): 279 nM | TGI (NCI/ADR-RES ovarian): 6450 nM | TGI (NCI-H460 lung): 147 nM and 536 nM | GI50 (HCT-15 colon): 206 nM | TGI (HCT-15 colon): > 100000 nM | GI50 (RPMI-8226 leukemia): < 1 nM | GI50 (PC-3 prostate): 85.7 nM | TGI (PC-3 prostate): > 100000 nM | GI50 (MDA-MB-231 breast): 524 nM | TGI (MDA-MB-231 breast): > 100000 nM | GI50 (OVCAR-3 ovarian): 64.9 nM | TGI (OVCAR-3 ovarian): 2550 nM and 1670 nM | TGI (HT29 colon): 526 nM | TGI (M14 melanoma): 488 nM and 156 nM | TGI (CCRF-CEM leukemia): > 100000 nM | TGI (NCI-H522 lung): 885 nM and 317 nM | GI50 (SK-OV-3 ovarian): < 1 nM | TGI (SK-OV-3 ovarian): 342 nM and 792 nM | TGI (SK-MEL-2 melanoma): 282 nM | GI50 (HS 578T breast): 4120 nM | TGI (HS 578T breast): > 100000 nM | GI50 (KM12 colon): 78.4 nM | TGI (KM12 colon): 2640 nM | TGI (NCI-H226 lung): 10.9 nM and 89.2 nM | TGI (DU-145 prostate): 3100 nM | GI50 (SK-MEL-28 melanoma): 246 nM | TGI (SK-MEL-28 melanoma): > 19700 nM | GI50 (TK-10 renal): 606 nM | TGI (SNB-75 CNS): 351 nM | TGI (SF-295 CNS): 50.3 nM | GI50 (OVCAR-5 ovarian): 246 nM | TGI (OVCAR-5 ovarian): 4560 nM | TGI (MDA-MB-435): 292 nM and 1570 nM
